According to patent publication US7868006B2, “Heterocyclic substituted piperazines with CXCR3 antagonist activity” (Schering Corporation, priority 2005, dated 2011):
pIC50: −log10 of the molar value.

Molecular target: T1, human CXCR3 (N-delta 4) (Homo sapiens, UniProt P49682)
T1 construct: CD8 leader (N); Flag tag (N); expressed in transfected cells; host or cells: mouse pro-B Ba/F3 cells, stably transfected with pME18Sneo-hCXCR3 (N-delta 4); membrane preparation
T1 sequence (P49682 5-368 limits assumed): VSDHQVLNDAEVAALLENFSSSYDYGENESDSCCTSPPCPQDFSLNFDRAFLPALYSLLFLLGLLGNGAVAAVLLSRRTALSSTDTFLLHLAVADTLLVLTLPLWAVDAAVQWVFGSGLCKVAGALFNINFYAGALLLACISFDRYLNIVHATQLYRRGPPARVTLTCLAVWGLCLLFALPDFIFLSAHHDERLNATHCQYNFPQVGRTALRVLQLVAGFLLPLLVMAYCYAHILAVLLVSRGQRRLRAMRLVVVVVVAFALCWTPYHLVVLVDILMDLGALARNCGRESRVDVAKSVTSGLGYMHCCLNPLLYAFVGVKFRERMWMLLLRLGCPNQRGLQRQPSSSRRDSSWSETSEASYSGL
Test: Human CXCR3 (N-delta 4) Scintillation Proximity Assay (SPA), [125I] IP-10 binding
Conditions: IC50 rating; Ba/F3-hCXCR3 (N-delta 4) membranes, 25 pM [125I] IP-10; read-out: IC50
Method in brief: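 Membranes from mouse Ba/F3 pro-B cells stably expressing Flag-tagged human CXCR3 (N-delta 4), 2 μg per point, bound to WGA SPA beads. Compound titrations competed with 25 pM [125I] IP-10 for 3 hr at room temperature in HEPES buffer with Ca2+, Mg2+, NaCl, 1.0% BSA; bead-bound radioactivity counted, […] values reported.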

| SMILES | pIC50 |
| --- | --- |
| CCNc1nnc(-c2cnc(N3C[C@H](CC)N(C4CCN(C(CO)c5ccc(F)c(F)c5)CC4)C[C@H]3C)c(C)n2)o1 (stereo partly shown) [Compound 175] | > 7.60 |
| CCNc1nnc(-c2cnc(N3CCN(C4CCN(C(=O)c5ccc(C(F)(F)F)cc5)CC4)[C@@H](CC)C3)c(C)n2)o1 [Compound 176] | > 7.60 |
| CC[C@H]1CN(c2ncc(-c3nnc(N)o3)nc2C)[C@H](C)CN1C1CCN([C@@H](C)c2ccc(OC(F)(F)F)cc2)CC1 [Compound 177] | > 7.60 |
| CC[C@H]1CN(c2ncc(-c3nnc(N)o3)nc2C)[C@H](C)CN1C1CCN([C@H](C)c2ccc(OC(F)(F)F)cc2)CC1 [Compound 178] | > 7.60 |
| CCNc1nnc(-c2cnc(N3C[C@H](CC)N(C4CCN(Cc5ccc(F)cc5)CC4)C[C@H]3C)c(C(F)(F)F)n2)o1 [Compound 179] | > 7.60 |
| CC[C@H]1CN(c2ncc(-c3nnc(NC4(C)CC4)o3)nc2C)[C@H](C)CN1C1CCN(C(=O)c2ccc(Cl)cc2)CC1 [Compound 180] | > 7.60 |
| CCNc1nnc(-c2cnc(N3CCN(C4CCN(C(=O)c5ccc(Cl)nc5N)CC4)[C@@H](CC)C3)c(C3CC3)n2)o1 [Compound 181] | 7.00 to 7.60 |
| CCNc1nnc(-c2cnc(N3CCN(C4CCN(C(C(=O)OC)c5ccc(Cl)cc5)CC4)[C@@H](CC)C3)c(C)n2)o1 (stereo partly shown) [Compound 182] | > 7.60 |
| CCNc1nnc(-c2cnc(N3CCN(C4CCN(C(=O)c5ccc(C(F)(F)F)cc5N)CC4)[C@@H](CC)C3)c(C)n2)o1 [Compound 183] | > 7.60 |
| CCNc1nnc(-c2cnc(N3CCN(C4CCN(C(=O)c5ccc(C(F)(F)F)nc5N)CC4)[C@@H](CC)C3)c(C)n2)o1 [Compound 184] | > 7.60 |
| CCNc1nnc(-c2cnc(N3C[C@H](CC)N(C4CCN(Cc5ccc(OC(F)(F)F)cc5)CC4)C[C@H]3C)c(C)n2)o1 [Compound 185] | > 7.60 |
| CC[C@H]1CN(c2ncc(-c3nnc(NC4(C)CC4)o3)nc2C)[C@H](C)CN1C1CCN(C(=O)c2ccc(Cl)nc2N)CC1 [Compound 186] | > 7.60 |
| CCNc1nnc(-c2cnc(N3CCN(C4CCN(C(=O)c5cc(F)c(Cl)cc5F)CC4)[C@@H](CC)C3)c(Cl)n2)o1 [Compound 187] | > 7.60 |
| CCNc1nnc(-c2cnc(N3C[C@H](CC)N(C4CCN(C(C(=O)OC)c5ccc(F)c(F)c5)CC4)C[C@H]3C)c(C)n2)o1 (stereo partly shown) [Compound 188] | > 7.60 |
| CCNc1nnc(-c2cnc(N3C[C@H](CC)N(C4CCN(C(=O)c5ccc(C(F)(F)F)nc5N)CC4)C[C@H]3C)c(C)n2)o1 [Compound 189] | > 7.60 |
| CC[C@H]1CN(c2nc(N)c(-c3nnc(NC)o3)nc2Cl)CCN1C1CCN(C(C(=O)OC)c2ccc(Cl)cc2)CC1 (stereo partly shown) [Compound 190] | > 7.60 |
| CCNc1nnc(-c2cnc(N3C[C@H](CC)N(C4CCN(C(=O)c5ccc(Cl)cc5)CC4)C[C@H]3C)c(C(F)(F)F)n2)o1 [Compound 191] | > 7.60 |
| CCOC(=O)CNc1nnc(-c2nc(C)c(N3CCN(C4CCN(C(=O)c5ccc(Cl)nc5N)CC4)[C@@H](CC)C3)nc2N)o1 [Compound 192] | > 7.60 |
| CC[C@H]1CN(c2nc(N)c(-c3nnc(NCC(=O)NC)o3)nc2C)CCN1C1CCN(C(=O)c2ccc(Cl)nc2N)CC1 [Compound 193] | > 7.60 |
| CC[C@H]1CN(c2nc(N)c(-c3nnc(NCC(=O)NC4CC4)o3)nc2C)CCN1C1CCN(C(=O)c2ccc(Cl)nc2N)CC1 [Compound 194] | > 7.60 |
| CCOC(=O)CNc1nnc(-c2cnc(N3CCN(C4CCN(Cc5ccc(F)c(F)c5COCc5ccccc5)CC4)[C@@H](CC)C3)c(C)n2)o1 [Compound 195] | 7.00 to 7.60 |
| CC[C@H]1CN(c2ncc(-c3nnc(N(CC)S(=O)(=O)c4ccc(C)cc4)o3)nc2C)C(C)CN1C1CCN(C(=O)c2ccc(Cl)cc2)CC1 (stereo partly shown) [Compound 196] | 7.00 to 7.60 |
